# What was measured:
# [1] = test system: SNU-C4 xenografted nude mice; assay: Biodistribution study in SNU-C4 xenografted nude mice after intravenous injection; format: in vivo, mouse; settings: for % ID/g Tumor: SNU-C4 tumor
# Method in brief: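 Nude mice bearing subcutaneous SNU-C4 xenografts (2×10^5 cells, right shoulder) received 10 μCi ^68Ga-labeled agent i.v. via tail vein on day 13. Tumour, blood and organs were weighed and counted at 10 min, 30 min, 1 h and 2 h; values are % ID/g.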
# [2] = test system: SNU-C4 xenografted nude mice; assay: PET imaging of tumor xenografted mice; format: in vivo, mouse; settings: PET at 1 and 2 hr post-injection, FIG. 2
# Experimental: Human colon cancer cell line SNU-C4 was cultured in RPMI1640 media containing 10% fetal bovine serum and harvested using trypsin. The cells were washed using 10 mL PBS and centrifugation at 3,000 rpm. Each nude mouse was injected with 2×10^5 cells/0.1 mL on the right shoulder subcutaneously. On 14 days post-injection, each 10 μCi/0.1 mL of ^68Ga labeled agent was injected into the xenografted mice through the tail vein. The injected mice were anesthetized using 2% isoflurane, PET images were obtained at 1 and 2 hr post-injection using rodent R4, microPET scanner (Concorde Microsystem Inc.). The images were analyzed using ASIPro software (Concorde Microsystem Inc.).
# [3] = test system: CT-26 cells; assay: In vitro cell uptake, CT-26 (FIG. 1b); format: cell-based, mouse; settings: controls ^68Ga-DO2A, ^68Ga-DO3A
# Experimental: Human colon cancer cell line SNU-C4 was purchased from Korea Cell Line Bank (KCLB). Human thyroid cell line ARO, human liver cancer cell line Hep3B, human glioma cell line U251MG and U87MG, and mouse colon cell line CT-26 were purchased from American Type Culture Collection (ATCC). SNU-C4 and ARO were culture in RPMI1640 (Welgene Inc., Korea) and Hep3B, U251 MG, U87MG, and CT-26 were cultured in DMEM (Welgene Inc., Korea). Penicillin, streptomycin and amphotericin B (10,000 IU/mL, 10 mg/mL and 25 μg/mL, respectively, Mediatech Inc., U.S.A.) 1% mixture and fetal bovine serum (Welgene Inc., Korea) were added to all cell culture media. Cell culture was done in 37° C. incubator with supply of 5% CO2.
# About 1.8×10^5 cells/mL CT-26 and 1.2×10^5 cells/mL U87MG were put into 24-well incubation plate and incubated for 20 hr. When the each well was about 80% confluent with cells, 296 kBq/0.5 mL of ^68Ga labeled agent was added to each well. Culture supernatants were discarded at each time point and cells were washed with ice-cooled Hank's balanced salt solution (HBSS, pH7.3, Gibco, U.S.A.) 2 times. The cells were dissolved by 0.5% sodium dodecylsulfate (SDS), recovered and counted using a gamma counter (Packard, Can berra Co., U.S.A.). Total protein amount in each sample was measured by bicinchonic acid (BCA, Pierce, U.S.A.) method.
# [4] = 10 min after intravenous injection
# [5] = 30 min after intravenous injection
# [6] = 1 hr after intravenous injection
# [7] = 2 hr after intravenous injection
compound,measurement,setting,value
N[C@@H](CN1CCN(CC(=O)[O-])CCN(CC(=O)[O-])CCN(CC(=O)[O-])CC1)C(=O)O.[68Ga+3] (stereo in doubt) [^68Ga-DO3A-ala],% ID/g Tumor,[1]; [4],3.22 ± 0.90 % ID/g
same,% ID/g Tumor,[1]; [5],2.49 ± 0.40 % ID/g
same,% ID/g Tumor,[1]; [6],2.44 ± 0.46 % ID/g
same,% ID/g Tumor,[1]; [7],2.98 ± 0.58 % ID/g
same,tumor uptake compared with the control heterocyclic compound (in words),"[1]; SNU-C4 xenografted nude mice, 10 min to 2 hr",higher and increasing by time
same,% ID/g Blood,[1]; [4],11.12 ± 0.49 % ID/g
same,% ID/g Blood,[1]; [5],8.35 ± 0.29 % ID/g
same,% ID/g Blood,[1]; [6],7.97 ± 1.29 % ID/g
same,% ID/g Blood,[1]; [7],6.07 ± 1.13 % ID/g
same,% ID/g Bone,[1]; [4],4.06 ± 0.44 % ID/g
same,% ID/g Bone,[1]; [5],3.63 ± 0.49 % ID/g
same,% ID/g Bone,[1]; [6],4.73 ± 0.69 % ID/g
same,% ID/g Bone,[1]; [7],5.00 ± 2.41 % ID/g
same,% ID/g Heart,[1]; [4],2.70 ± 0.18 % ID/g
same,% ID/g Heart,[1]; [5],1.80 ± 0.22 % ID/g
same,% ID/g Heart,[1]; [6],1.69 ± 0.40 % ID/g
same,% ID/g Heart,[1]; [7],1.30 ± 0.40 % ID/g
same,% ID/g Intestine,[1]; [4],2.48 ± 0.13 % ID/g
same,% ID/g Intestine,[1]; [5],1.74 ± 0.14 % ID/g
same,% ID/g Intestine,[1]; [6],1.87 ± 0.33 % ID/g
same,% ID/g Intestine,[1]; [7],4.38 ± 1.14 % ID/g
same,% ID/g Kidney,[1]; [4],60.06 ± 14.07 % ID/g
same,% ID/g Kidney,[1]; [5],9.10 ± 2.19 % ID/g
same,% ID/g Kidney,[1]; [6],4.82 ± 0.99 % ID/g
same,% ID/g Kidney,[1]; [7],6.06 ± 2.27 % ID/g
same,% ID/g Liver,[1]; [4],2.58 ± 0.07 % ID/g
same,% ID/g Liver,[1]; [5],2.30 ± 0.13 % ID/g
same,% ID/g Liver,[1]; [6],2.35 ± 0.25 % ID/g
same,% ID/g Liver,[1]; [7],2.52 ± 0.41 % ID/g
same,% ID/g Lung,[1]; [4],13.60 ± 2.37 % ID/g
same,% ID/g Lung,[1]; [5],9.35 ± 1.00 % ID/g
same,% ID/g Lung,[1]; [6],8.40 ± 1.17 % ID/g
same,% ID/g Lung,[1]; [7],8.04 ± 0.83 % ID/g
same,% ID/g Muscle,[1]; [4],3.52 ± 0.42 % ID/g
same,% ID/g Muscle,[1]; [5],2.03 ± 0.41 % ID/g
same,% ID/g Muscle,[1]; [6],1.38 ± 0.39 % ID/g
same,% ID/g Muscle,[1]; [7],1.33 ± 0.48 % ID/g
same,% ID/g Spleen,[1]; [4],2.59 ± 0.30 % ID/g
same,% ID/g Spleen,[1]; [5],2.33 ± 0.15 % ID/g
same,% ID/g Spleen,[1]; [6],2.33 ± 0.44 % ID/g
same,% ID/g Spleen,[1]; [7],2.19 ± 0.35 % ID/g
same,% ID/g Stomach,[1]; [4],1.97 ± 0.18 % ID/g
same,% ID/g Stomach,[1]; [5],1.53 ± 0.17 % ID/g
same,% ID/g Stomach,[1]; [6],1.53 ± 0.37 % ID/g
same,% ID/g Stomach,[1]; [7],11.42 ± 5.04 % ID/g
same,tumor uptake in PET images,[2],high tumor uptakes
same,tumor cell uptake versus control agents,[3],significantly increase tumor cell uptakes
